The values below come from patent EP0808325B1, “[…] […] SERIES FOR […] GABA RECEPTOR” (priority 1994, dated 1996).

In data set [1] the test system is picrotoxin. As to conditions: cited from earlier work.
Data set [2] relates to (+)bicuculline. As to conditions: cited from earlier work.
The subject of data set [3] is maximal electroshock. As to conditions: cited from earlier work.
Data set [4] relates to strychnine. To be noted: strychnine administered i.v.; data from Worms et al. 1982; cited from earlier work.
Data set [5] relates to metrazol induced convulsions. To be noted: cited from earlier work.
For data set [6], the system named is mice. To be noted: Rotorod; data from Swinyard & Woodhead 1982; cited from earlier work. Background: The rotarod test checks motor coordination on a turning rod.
Data set [7] concerns mice. The data set can be described thus: light/dark transition test. It is filed as in vivo, N.I.H. Swiss-Webster mice. To be noted: IP. The source says: The light/dark transition test (Crawley and Goodwin, Pharmacol. Biochem. Behav. 13:67-70 1980) is based on the observation that rodents naturally tend to explore novel environments, but open, brightly lit arenas are aversive to the rodents and inhibit exploratory behavior (Christmas and Maxwell, Neuropharmacol. 9:17-29 1970; File, J. Neurosci. Meth. 2:219-238 1980).
Male N.I.H. Swiss-Webster mice (Harlan, Harlan, Indianapolis, IN) weighing 15-20 g were housed four per cage in polyethylene cages with sawdust bedding. The colony room was environmentally controlled (22°C) with a 12 hr light/dark cycle (0600-1800 hr). Food and water were available ad libitum, except during testing. The experiments were run from 0700-1500 hr and groups were counterbalanced for time of day effects. Mice were only administered drug or vehicle once.
The method used was a modification of methods previously described (Wieland et al., Br. Res. 565:263-268 (1991)). The apparatus included two 2-compartment automated test chambers (Model RXYZCM16, Omnitech Electronics, Columbus, OH). The open compartment was connected to the enclosed compartment via a 7.5 x 7.5 cm passageway. The open compartment was brightly lit using a 200 W incandescent light bulb. The experimental room was kept dark. Interruptions of the infrared beams in either chamber were automatically recorded by being linked to a computer through a Digiscan Analyzer (Omnitech Electronics) and the data was analyzed using the Integrated Lab Animal Monitoring System (Omnitech Electronics).
N.I.H. Swiss-Webster mice were administered vehicle or test drug intraperitoneally (IP), 10 min later they were placed in the center of the lit compartment. The number of transitions between the lit and dark chambers, total activity in the lit chamber and the time spent in the lit chamber were measured during a 10 min test period.

The test system of data set [8] is mice. The data set is described as follows: elevated plus-maze. It is filed as in vivo, N.I.H. Swiss-Webster mice. The method in brief:
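Male Swiss-Webster mice (15-20 g), dosed once with drug or vehicle, were placed on an elevated plus-maze 10 min post-injection for 5 min. Open-arm entries and open-arm time recorded, each as a percentage of total arm entries or time; center time excluded.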

For data set [9], the system named is metrazol induced convulsions. The data set can be described thus: animal or person. The class given is in vivo, mice. To be noted: for % Protected: 10 mg/kg.
Data set [10] addresses GR complex. The data set is described as follows: modulation of [35S]TBPS binding in rat cerebral cortex P2 homogenate. As to conditions: for IC50: concentration of compounds to inhibit 50% of control [35S]TBPS binding, 2 nM [35S]TBPS, 25°C, 90 minutes, no unit printed; for IMAX: maximum inhibition of [35S]TBPS binding, I* = Inactive. More on the design: species or system Sprague-Dawley rats; IMAX: unit not given here. The method in brief:
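Rat (male Sprague-Dawley) cortical P2 homogenate, 0.5 mg protein, in 50 mM Na/K phosphate pH 7.4, 200 mM NaCl, incubated 90 min at 25° C with 2 nM [35S]TBPS plus GABA and (+)bicuculline, compounds added in DMSO. Filter-bound radioactivity counted; nonspecific binding defined with […].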

Data set [11] relates to maximal electroshock. The data set can be described thus: maximal electroshock test. The class given is in vivo, mice. As to conditions: Mus musculus, ip, 20% hydroxypropyl-β-cyclodextrin in water. From the text:
The anticonvulsant tests are similar to that described above. […]
In general terms: Protection in the maximal electroshock model is a classic sign of anticonvulsant action.

Where two headings read alike, the source gives them in different places.

As for `NC(=O)CCC/N=C(\c1ccc(Cl)cc1)c1cc(F)ccc1O` [Progabide], the “ED50 PICRO” value in data set [1] (picrotoxin administered i.v., data from Worms et al. 1982) was 105 mg/kg. Besides, the “ED50 BIC” value in data set [2] (bicuculline administered i.v., data from Worms et al. 1982) is 30 mg/kg. Further, the “ED50 MES” value in data set [3] (data from Worms et al. 1982) was 75 mg/kg. In addition, the “ED50 STR” value in data set [4] is 75 mg/kg. Moreover, in data set [5] (metrazol administered i.v., data from Worms et al. 1982), the “ED50 MTZ” value was 30 mg/kg.
Turning to `CCC1(c2ccccc2)C(=O)NC(=O)NC1=O` [Phenobarbital], the “ED50 RR” value in data set [6] was 69 mg/kg.
On to `O=C1CN=C(c2ccccc2Cl)c2cc([N+](=O)[O-])ccc2N1` [Clonazepam], for which the “ED50 PICRO” value in data set [1] (picrotoxin, data from Swinyard & Woodhead 1982, NP = no protection) was 0.043 mg/kg. Moreover, the “ED50 BIC” value in data set [2] (bicuculline, data from Swinyard & Woodhead 1982, NP = no protection) is 0.0086 mg/kg. Also, the “ED50 MES” value in data set [3] (data from Swinyard & Woodhead 1982) is 93 mg/kg. Besides, the “ED50 RR” value in data set [6] was 0.184 mg/kg. Also, in [5] (metrazol, data from Swinyard & Woodhead 1982, NP = no protection), the “ED50 MTZ” value was 0.009 mg/kg.
Consider `CC(=O)[C@H]1CC[C@H]2[C@@H]3CC[C@@H]4C[C@H](O)CC[C@]4(C)[C@H]3CC[C@]12C` [3α-Hydroxy-5β-pregnan-20-one, reference compound], for which the activity entry in data set [7] (10 & 20 mg/kg, compared to control groups) is recorded as “significant (p < 0.01) increases”. Besides, the “number of transitions between the dark box and the light box” value in data set [7] (at doses tested, versus control (Dunnett's t-test)) is “significantly increased”. The “entries into the open-arms” value in data set [8] (5 mg/kg (p ≤ 0.05)) and in data set [8] (10 mg/kg (p ≤ 0.01)) was “significant increases” each time. For the same compound, the “time spent on the open-arms” value in [8] (10 mg/kg (p ≤ 0.01)) was “significant increases”.
`C#C[C@@]1(O)CC[C@@]2(C)[C@H](CC[C@@H]3[C@@H]2CC[C@]2(C)[C@@H](C(=O)COC(=O)CCC(=O)O)CC[C@@H]32)C1` [Sodium 3α,21-dihydroxy-3β-ethynyl-5β-pregnan-20-one 21-hemisuccinate] showed a soluble in water greater than 20 mg/mL. In data set [9] (mouse, in vivo, ip), the “% Protected” value amounted to 50%. In data set [10], this compound came in with a half-maximal inhibitory concentration (IC50) of 540 nM and an IMAX of 102. The “% Control” value in data set [8] (PO, water, 10 mg/kg) turned out to be 159%.
`C[C@]12CC[C@@H](O)C[C@@H]1CC[C@@H]1[C@@H]2CC[C@]2(C)[C@@H](C(=O)CO)CC[C@@H]12` [3α,21-dihydroxy-5α-pregnan-20-one, reference compound]: the “% Protected” value in [9] (IP, 50% hpbcd, 10 minutes prior to metrazol (85 mg/kg)) is given as 87.5%. Also, the median effective dose (ED50) in data set [9] (Mus musculus, metrazol s.c., steroid i.p., 20% hydroxypropyl-β-cyclodextrin in water) amounted to 8.1 mg/kg. In data set [10], this compound displayed an IC50 of 76 nM and an IMAX of 100. For the same compound, in [11], the 50% effective dose (ED50) was found to be 26.7 mg/kg.

In general, IC50 refers to the concentration that inhibits the measured activity by half. The ED50 is the midpoint of the dose-response relation.
